Common to all, as to experiment: inhibition of tumour cell growth, NCI panel, 48 h
Assay [1] concerns CCRF-CEM leukemia.
Assay [2] has as its system LOX IMVI melanoma.
Assay [3] has as its system NCI-H23 lung.
Assay [4] concerns SK-MEL-2 melanoma.
For assay [5], the system named is SK-OV-3 ovarian.
Assay [6] deals with SNB-19 CNS.
The subject of assay [7] is U251 CNS.
In assay [8] the test system is UACC-257 melanoma.
For assay [9], the system named is RPMI-8226 leukemia.

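Compound exposure: 48 hours, 5 concentrations, 96-well plates. GI50 marks 50% less growth. At the TGI there is no net growth.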

For `Cc1ccc(NC(=O)CC/C(CC(=O)C(C)(C)C)=N\Nc2ccc([N+](=O)[O-])cc2[N+](=O)[O-])cc1C`, the TGI in assay [1] was 98 µM; in assay [2], 97.2 µM; in [3], above 100 µM; in assay [4], above 100 µM; in assay [5], above 100 µM; in [6], above 100 µM. Further, the TGI in assay [7] and in assay [8] was above 100 µM in each case.
`Nc1nc(N)c(N=Nc2ccc(C(=O)O)c(O)c2)c(N)n1`: the TGI in assay [1], in assay [2], in assay [3], in [9], in assay [4] and in assay [5] was above 100 µM throughout. For the same compound, the TGI in assay [6], in assay [7] and in [8] was above 100 µM in each case.
In the case of `COc1cc(/C=C\c2ccc(OC(C)=O)cc2)cc(OC)c1OC`, the TGI in assay [1] was above 100 µM; in [3], 13.2 µM; in assay [9], above 100 µM; in assay [4], above 100 µM; in [5], above 100 µM; in assay [6] it was above 100 µM. Also, the TGI in assay [7] and in assay [8] was above 100 µM in each case.
On to `O=C(O)CCSC(=O)Nc1ccccc1Cl`, for which the TGI in assay [1], in assay [2], in [3], in [9], in assay [5] and in [6] was above 100 µM in each case. The TGI in [7] and in assay [8] was above 100 µM in each case.
`C#CCN(N=O)C(=O)NCCCC(NC(C)=O)C(=O)NCc1ccccc1` (stereo not given): the TGI in assay [1] was 70.3 µM; in assay [2], above 100 µM; in assay [3], above 100 µM; in assay [9], above 100 µM; in assay [5] it was above 100 µM; in assay [6] it was above 100 µM. Besides, the TGI in assay [7] and in assay [8] was above 100 µM in each case.
On to `NNC(=O)N/N=C1\C(=O)N(c2nccs2)C(=O)C(=O)C1c1nc2ccccc2s1` (stereo not given), for which the TGI in assay [2], in [3], in assay [9], in [4], in assay [5] and in [6] was above 100 µM each time. The TGI in assay [7] and in assay [8] was above 100 µM in each case.
With `O=C(O)CCSC(=S)Nc1cccc(F)c1`, the TGI is 42.6 µM in assay [2]; above 100 µM in [3]; above 100 µM in assay [9]; above 100 µM in assay [5]; above 100 µM in [6]; above 100 µM in assay [7]. Besides, the TGI in assay [8] came to 53.2 µM.
Take `O=C(Nc1cccc(Cl)c1)c1cc(N=Nc2ccc([N+](=O)[O-])cc2Cl)ccc1O`: the GI50 was 2.16 µM in [1]; 3.02 µM in assay [2]; 1.93 µM in assay [3]; 1.81 µM in assay [4]; 1.94 µM in assay [5]; 3.07 µM in assay [6]. The figures for the GI50 in assay [7] and in assay [8] were 1.93 µM and 2.55 µM, respectively. For the same compound, the TGI in [1] was 5.81 µM; in assay [2] it was 10.8 µM; in assay [3], 4.58 µM; in assay [4], 4.04 µM; in assay [5], 6.63 µM; in assay [6], above 100 µM. Besides, the TGI in assay [7] was found to be 7 µM; in assay [8], 6.52 µM.
Regarding `CC[C@]12C=CCN3CC[C@@]4(c5ccc(OC)cc5N(C)[C@H]4[C@@](O)(C(=O)OC)[C@@H]1OC(=O)CCC(=O)N[C@H](Cc1c[nH]c4ccccc14)C(=O)OC)[C@@H]32`, the GI50 in assay [1] is 3.34 µM; in [3], 13.5 µM; in assay [9], 3.63 µM; in assay [4] it was 17 µM; in assay [5], 15.5 µM; in assay [6], 4.74 µM. The GI50 is 8.08 µM in assay [7] and 6 µM in [8]. Besides, the TGI in [1] is above 100 µM; in assay [3], 54.3 µM; in assay [9] it was 44.7 µM; in assay [4] it was 37.3 µM; in [5] it was 33.7 µM; in assay [6], 48.8 µM. The TGI stood at 24.9 µM in assay [7] and 23.1 µM in assay [8].
For the compound `COc1ccc(/C=c2/sc3n(c2=O)NC(c2ccc(Cl)cc2)NN=3)cc1` (stereo not given), the TGI in assay [1], in [2], in [3], in [4], in [5] and in [6] was above 100 µM in each case. The compound further came in with a TGI in [7] above 100 µM.

The values are drawn from PubChem BioAssay (NCI).
